Structures are written as SMILES.

Assay [1] addresses T1, RIPK1 (Homo sapiens, UniProt Q13546).
T1 construct: endogenous in cells; host or cells: HT-29 (KCLB 30038)
T1 sequence (Q13546 1-671): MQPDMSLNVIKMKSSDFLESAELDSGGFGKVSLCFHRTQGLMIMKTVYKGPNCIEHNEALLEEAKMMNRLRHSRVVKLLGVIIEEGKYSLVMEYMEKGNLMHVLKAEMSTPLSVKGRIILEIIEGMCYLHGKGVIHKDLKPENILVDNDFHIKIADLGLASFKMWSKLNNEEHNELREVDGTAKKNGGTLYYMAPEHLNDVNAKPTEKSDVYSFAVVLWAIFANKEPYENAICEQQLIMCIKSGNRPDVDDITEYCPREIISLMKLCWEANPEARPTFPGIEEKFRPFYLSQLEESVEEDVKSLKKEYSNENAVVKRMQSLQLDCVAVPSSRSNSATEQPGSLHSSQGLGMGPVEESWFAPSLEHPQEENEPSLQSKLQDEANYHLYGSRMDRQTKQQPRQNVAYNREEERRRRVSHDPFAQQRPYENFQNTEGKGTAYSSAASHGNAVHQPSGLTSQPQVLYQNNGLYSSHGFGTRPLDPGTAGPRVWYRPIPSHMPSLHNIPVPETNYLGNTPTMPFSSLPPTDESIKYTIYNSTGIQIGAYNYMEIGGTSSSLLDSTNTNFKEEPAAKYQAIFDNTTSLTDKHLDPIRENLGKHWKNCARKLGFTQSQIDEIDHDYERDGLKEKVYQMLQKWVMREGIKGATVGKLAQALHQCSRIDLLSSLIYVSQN
Briefly: Cell-based necroptosis assay for RIPK1 activity (cell viability by CCK-8). Particulars: HT-29 cells; Z-VAD-FMK 20 μM, human TNFα 10 ng/ml, SM-164 100 nM; 24 h; read-out: Cell-base RIPK1 activity: Necroptosis. The method, then:
(§1) Human colon carcinoma cell HT-29 (KCLB 30038), BV2 mouse microglial cell (cell was a kind gift from Dr. Nak-Yun Sung, Senior researcher at Korea Prime Pharmacy CO., LTD.) and human microglial cell HMC3 (ATCC® CRL-3304™). HT-29 cell was grown in Roswell Park Memorial Institute (RPMI) 1640, BV2 cell was grown in Dulbecco's Modified Eagle's Medium (DMEM) and HMC3 cell was grown in Minimum Essential Media Eagle (MEM) supplemented with 10% fetal bovine serum and 1% mixture of penicillin and streptomycin (Gibco). Cells were maintained at 37° C. in a humidified 5% CO2 atmosphere.
To measure the activity of RIPK1 inhibitor in necroptotic cells, HT-29 cells were treated by control DMSO, human TNFα (Peprotech, Rocky Hill, USA), SM-164 (Biovision, California, USA) and a pan-caspase inhibitor Z-VAD-FMK (Invivogen, San Diego, USA). Cells were pretreated with Z-VAD-FMK 20 μM. After 30 min, human TNFα 10 ng/ml, SM-164 100 nM and RIPK1 Inhibitor (0.0001, 0.001, 0.01, 0.02, 0.05, 0.1, 1, 10 uM) were treated for 24 h. Cell viability was measured by Cell Counting Kit 8 (CCK-8) (Dong-in, Seoul, Korea).

For assay [2], the target named is T1, RIPK1. Briefly: Immunoblotting of TNFα induced phospho-RIPK1 (ser 166) levels. The assay is classed as cell-based. The conditions noted are these: HMC3 cells; Z-VAD-FMK, human TNFα 20 ng/ml, SM-164 100 nM; 7 h, serum free media; read-out: Cell-base RIPK1 activity: phspho-RIPK1 (Ser166). The method, then:
as §1
Biological activity of the compounds of RIPK1 inhibitor was determined by measuring their ability to inhibitor TNFα induced phospho-RIPK1 (ser 166) levels, phospho-RIPK3 levels, phospho-MLKL levels in HMC3 cells. Cells were pretreated with Z-VAD-FMK […]. After 30 min, human TNFα 20 ng/ml, SM-164 100 nM and RIPK1 inhibitor (0.1, 1, 10 nM) were treated for 7 h under serum free media. Cells were lysed with cold lysis buffer containing 25 mM HEPES pH 7.6, […] NaCl, 1% NP40, 1% sodium deoxycholate, 0.1% SDS, and protease inhibitor mixture (Bimake, Houston, USA) using sonicators. The cells were centrifuged at 15,000 rpm, 4° C. for 5 min. After protein concentration of the lysates (supernatants) was quantified using BCA assay (Thermo Fisher Scientific, Waltham, USA), lysates were mixed with LDS sample buffer and heating at […] for 10 min. (Invitrogen, California, USA). […] The membranes are placed in an image analyzer (Imagequant, LAS 500, GE Healthcare), connected to a computer which allows the image generation (software Image reader LAS 500).
Background: Immunoblotting shows a protein as a band on a membrane.

For `CN1C(=O)[C@@H](NC(=O)n2cc(Cc3cccc(F)c3)cn2)COc2ccc(OCCCC3CCCCC3)cc21` [Example 16, (S)—N-(7-(3-cyclohexylpropoxy)-5-methyl-4-oxo-2,3,4,5-tetrahydrobenzo[b][1,4]oxazepin-3-yl)-4-(3-fluorobenzyl)-1H-pyrazole-1-carboxamide], the IC50 at RIPK1 [1] and on RIPK1 [2] was under 10 nM in each case.

Take `CN1C(=O)[C@@H](NC(=O)n2cc(Cc3cccc(F)c3)cn2)COc2ccc(OCC(=O)N3CC(O)C3)cc21` [Example 50, (S)-4-(3-fluorobenzyl)-N-(7-(2-(3-hydroxyazetidin-1-yl)-2-oxoethoxy)-5-methyl-4-oxo-2,3,4,5-tetrahydrobenzo[b][1,4]oxazepin-3-yl)-1H-pyrazole-1-carboxamide]: the IC50 at RIPK1 [1] and on RIPK1 [2] was under 10 nM each time.

As to `CN1C(=O)[C@@H](NC(=O)n2cc(Cc3cccc(F)c3)cn2)COc2ccc(OCc3nccn3C)cc21` [Example 63, (S)-4-(3-fluorobenzyl)-N-(5-methyl-7-((1-methyl-1H-imidazol-2-yl)methoxy)-4-oxo-2,3,4,5-tetrahydrobenzo[b][1,4]oxazepin-3-yl)-1H-pyrazole-1-carboxamide], the IC50 at RIPK1 [1] and at RIPK1 [2] was under 10 nM throughout.

Consider `CN1C(=O)[C@@H](NC(=O)n2cc(Cc3cccc(F)c3)cn2)COc2ccc(C(=O)N3CCC(F)(F)CC3)cc21` [Example 3], for which the IC50 on RIPK1 [1] and on RIPK1 [2] was 10 to 50 nM each time.

Regarding `CN1C(=O)[C@@H](NC(=O)n2cc(Cc3cccc(F)c3)cn2)COc2ccc(C(=O)NOCC(C)(C)O)cc21` [Example 13, (S)-3-(4-(3-fluorobenzyl)-1H-pyrazole-1-carboxamido)-N-(2-hydroxy-2-methylpropoxy)-5-methyl-4-oxo-2,3,4,5-tetrahydrobenzo[b][1,4]oxazepine-7-carboxamide], the IC50 on RIPK1 [1] is 10 to 50 nM.

On to `CN1C(=O)[C@@H](NC(=O)n2cc(Cc3cccc(F)c3)cn2)COc2ccc(OCc3cn(CC(C)(C)O)nn3)cc21` [Example 68, (S)-4-(3-fluorobenzyl)-N-(7-((1-(2-hydroxy-2-methylpropyl)-1H-1,2,3-triazol-4-yl)methoxy)-5-methyl-4-oxo-2,3,4,5-tetrahydrobenzo[b][1,4]oxazepin-3-yl)-1H-pyrazole-1-carboxamide], for which the IC50 at RIPK1 [1] and on RIPK1 [2] was under 10 nM throughout.

As to `CN1C(=O)[C@@H](NC(=O)n2cc(Cc3cccc(F)c3)cn2)COc2ccc(C(=O)N3CCC(C(C)(C)O)CC3)cc21` [Example 6, (S)-4-(3-fluorobenzyl)-N-(7-(4-(2-hydroxypropan-2-yl)piperidine-1-carbonyl)-5-methyl-4-oxo-2,3,4,5-tetrahydrobenzo[b][1,4]oxazepin-3-yl)-1H-pyrazole-1-carboxamide], the IC50 on RIPK1 [1] and on RIPK1 [2] was under 10 nM each time.

On to `CN1C(=O)[C@@H](NC(=O)n2cc(Cc3cccc(F)c3)cn2)COc2ccc(O[C@H]3CC[C@@H](O)CC3)cc21` [Example 34, 4-(3-fluorobenzyl)-N—((S)-7-(((1s,4R)-4-hydroxycyclohexyl)oxy)-5-methyl-4-oxo-2,3,4,5-tetrahydrobenzo[b][1,4]oxazepin-3-yl)-1H-pyrazole-1-carboxamide], for which the IC50 on RIPK1 [1] and at RIPK1 [2] was under 10 nM each time.

For the molecule `CN1C(=O)[C@@H](NC(=O)n2cc(Cc3cccc(F)c3)cn2)COc2ccc(OCC(=O)N3CCC(F)(F)C3)cc21` [Example 45, (S)—N-(7-(2-(3,3-difluoropyrrolidin-1-yl)-2-oxoethoxy)-5-methyl-4-oxo-2,3,4,5-tetrahydrobenzo[b][1,4]oxazepin-3-yl)-4-(3-fluorobenzyl)-1H-pyrazole-1-carboxamide], the IC50 on RIPK1 [1] and on RIPK1 [2] was under 10 nM in each case.

Consider `CN1C(=O)[C@@H](NC(=O)n2cc(Cc3cccc(F)c3)cn2)COc2ccc(C(=O)N3CCC(C)(C)CC3)cc21` [Example 2, (S)—N-(7-(4,4-dimethylpiperidine-1-carbonyl)-5-methyl-4-oxo-2,3,4,5-tetrahydrobenzo[b][1,4]oxazepin-3-yl)-4-(3-fluorobenzyl)-1H-pyrazole-1-carboxamide], for which the IC50 at RIPK1 [1] and at RIPK1 [2] was under 10 nM throughout.

On to `CN1C(=O)[C@@H](NC(=O)n2cc(Cc3cccc(F)c3)cn2)COc2ccc(O[C@@H]3CCOC3)cc21` [Example 32, 4-(3-fluorobenzyl)-N—((S)-5-methyl-4-oxo-7-(((R)-tetrahydrofuran-3-yl)oxy)-2,3,4,5-tetrahydrobenzo[b][1,4]oxazepin-3-yl)-1H-pyrazole-1-carboxamide], for which the IC50 on RIPK1 [1] is under 10 nM.

Take `CN(C)CCOc1ccc2c(c1)N(C)C(=O)[C@@H](NC(=O)n1cc(Cc3cccc(F)c3)cn1)CO2` [Example 17, (S)—N-(7-(2-(dimethylamino)ethoxy)-5-methyl-4-oxo-2,3,4,5-tetrahydrobenzo[b][1,4]oxazepin-3-yl)-4-(3-fluorobenzyl)-1H-pyrazole-1-carboxamide]: the IC50 at RIPK1 [1] was in the range of 10 to 50 nM.

As for `CN1CC[C@@H](Oc2ccc3c(c2)N(C)C(=O)[C@@H](NC(=O)n2cc(Cc4cccc(F)c4)cn2)CO3)C1` [Example 33, 4-(3-fluorobenzyl)-N—((S)-5-methyl-7-(((R)-1-methylpyrrolidin-3-yl)oxy)-4-oxo-2,3,4,5-tetrahydrobenzo[b][1,4]oxazepin-3-yl)-1H-pyrazole-1-carboxamide], the IC50 at RIPK1 [1] was 10 to 50 nM.

For the molecule `CN1C(=O)[C@@H](NC(=O)n2cc(Cc3cccc(F)c3)cn2)COc2ccc(C(=O)N3CCOCC3)cc21` [Example 9, (S)-4-(3-fluorobenzyl)-N-(5-methyl-7-(morpholine-4-carbonyl)-4-oxo-2,3,4,5-tetrahydrobenzo[b][1,4]oxazepin-3-yl)-1H-pyrazole-1-carboxamide], the IC50 at RIPK1 [1] is 10 to 50 nM.

Take `CN1CCN(C(=O)c2ccc3c(c2)N(C)C(=O)[C@@H](NC(=O)n2cc(Cc4cccc(F)c4)cn2)CO3)CC1` [Example 7, (S)-4-(3-fluorobenzyl)-N-(5-methyl-7-(4-methylpiperazine-1-carbonyl)-4-oxo-2,3,4,5-tetrahydrobenzo[b][1,4]oxazepin-3-yl)-1H-pyrazole-1-carboxamide]: the IC50 at RIPK1 [1] is 10 to 50 nM.

As for `CN1C(=O)[C@@H](NC(=O)n2cc(Cc3cccc(F)c3)cn2)COc2ccc(C(=O)N3CCNCC3)cc21` [Example 8, (S)-4-(3-fluorobenzyl)-N-(5-methyl-4-oxo-7-(piperazine-1-carbonyl)-2,3,4,5-tetrahydrobenzo[b][1,4]oxazepin-3-yl)-1H-pyrazole-1-carboxamide], the IC50 at RIPK1 [1] was over 50 nM.

Take `CN1C(=O)[C@@H](NC(=O)n2cc(Cc3cccc(F)c3)cn2)COc2ccc(OCC(=O)NCC(C)(C)O)cc21` [Example 52, (S)-4-(3-fluorobenzyl)-N-(7-(2-((2-hydroxy-2-methylpropyl)amino)-2-oxoethoxy)-5-methyl-4-oxo-2,3,4,5-tetrahydrobenzo[b][1,4]oxazepin-3-yl)-1H-pyrazole-1-carboxamide]: the IC50 at RIPK1 [1] is under 10 nM.

On to `CN1C(=O)[C@@H](NC(=O)n2cc(Cc3cccc(F)c3)cn2)COc2ccc(C(=O)N3CCC(O)C3)cc21` (stereo partly drawn) [Example 10, 4-(3-fluorobenzyl)-N-((3S)-7-(3-hydroxypyrrolidine-1-carbonyl)-5-methyl-4-oxo-2,3,4,5-tetrahydrobenzo[b][1,4]oxazepin-3-yl)-1H-pyrazole-1-carboxamide], for which the IC50 at RIPK1 [1] is under 10 nM.

Values taken from patent US20240083892A1 (BISICHEM CO., LTD., priority 2021, published 2024).
